The numbers were not newly measured in patent EP4026540A1, “A FILM COATED TABLET COMPRISING APIXABAN” (SANOVEL ILAC SANAYI VE TICARET A.S., priority 2021, dated 2022), which cites them from elsewhere.

For this series the following is noted: single 10 mg dose.

For the molecule `COc1ccc(-n2nc(C(N)=O)c3c2C(=O)N(c2ccc(N4CCCCC4=O)cc2)CC3)cc1` [apixaban, 1-(4-methoxyphenyl)-7-oxo-6-[4-(2-oxopiperidin-1-yl)phenyl]-4,5,6,7-tetrahydro-1H-pyrazolo[3,4-c]pyridine-3-carboxamide], the oral bioavailability entry is given as “about 50%”.
